From patent publication US6737383B1, “Herbicidal oxadiazolidines” (priority 1999, dated 2004)

Legend:
[1] = tested on: morningglory; assay: Test B pre/postemergence morningglory; assay type: in vivo, Ipomoea hederacea
In short: (§1)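 Response is a visual 0-to-10 score relative to untreated plants, where 0 means no effect and 10 means complete control, taken twelve to sixteen days after application. Treatments went onto soil at planting and onto foliage of 1- to 4-leaf plants, using a surfactant-containing non-phytotoxic solvent.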

[2] = tested on: bamyardgrass; assay: Test B flood test barnyardgrass; assay type: in vivo, Echinochloa crus-galli
In short: (§2)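 Plants were grown to the 2-leaf stage before treatment with test chemical, then held in a greenhouse for twelve to sixteen days. Injury was visually rated against untreated controls on a 0–10 scale, where 0 is no effect and 10 is complete control.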

[3] = tested on: soybean; assay: Test B pre/postemergence soybean; assay type: in vivo, Glycine max
In short: as §1

[4] = tested on: duck salad; assay: Test B flood test duck salad; assay type: in vivo, Heteranthera limosa
In short: as §2

[5] = tested on: corn; assay: Test B pre/postemergence corn; assay type: in vivo, Zea mays
In short: as §1

[6] = tested on: smallflower flatsedge; assay: Test B flood test smallflower flatsedge; assay type: in vivo, Cyperus difformis
In short: as §2

[7] = tested on: sugar beet; assay: Test B pre/postemergence sugar beet; assay type: in vivo, Beta vulgaris
In short: as §1

[8] = tested on: velvetleaf; assay: Test B pre/postemergence velvetleaf; assay type: in vivo, Abutilon theophrasti
In short: as §1

[9] = tested on: crabgrass; assay: Test B pre/postemergence crabgrass; assay type: in vivo, Digitaria sanguinalis
In short: as §1

[10] = tested on: purple nutsedge; assay: Test B pre/postemergence purple nutsedge; assay type: in vivo, Cyperus rotundus
In short: as §1

[11] = tested on: blackgrass; assay: Test B pre/postemergence blackgrass; assay type: in vivo, Alopecurus myosuroides
In short: as §1

[12] = tested on: giant foxtail; assay: Test B pre/postemergence giant foxtail; assay type: in vivo, Setaria faberii
In short: as §1

[13] = tested on: bedstraw; assay: Test B pre/postemergence bedstraw; assay type: in vivo, Galium aparine
In short: as §1

[14] = tested on: wheat; assay: Test B pre/postemergence wheat; assay type: in vivo, Triticum aestivum
In short: as §1

[15] = tested on: pigweed; assay: Test B pre/postemergence pigweed; assay type: in vivo, Amaranthus retroflexus
In short: as §1

[16] = tested on: rape; assay: Test B pre/postemergence rape; assay type: in vivo, Brassica napus
In short: as §1

[17] = tested on: cocklebur; assay: Test B pre/postemergence cocklebur; assay type: in vivo, Xanthium strumarium
In short: as §1

[18] = tested on: surinam grass; assay: Test B pre/postemergence surinam grass; assay type: in vivo, Brachiaria decumbens
In short: as §1

[19] = tested on: rice; assay: Test B flood test rice; assay type: in vivo, Oryza sativa
In short: as §2

[20] = tested on: wild oat; assay: Test B pre/postemergence wild oat; assay type: in vivo, Avena fatua
In short: as §1

[21] = Preemergence, Rate 62 g/ha, scale of 0 to 10 where 0 is no effect and 10 is complete control
[22] = Preemergence, Rate 250 g/ha, scale of 0 to 10 where 0 is no effect and 10 is complete control
[23] = Preemergence, Rate 500 g/ha, scale of 0 to 10 where 0 is no effect and 10 is complete control
[24] = Rate 125 g/ha, Preemergence, scale of 0 to 10 where 0 is no effect and 10 is complete control
[25] = Rate 500 g/ha, Postemergence, scale 0 to 10, 0 no effect, 10 complete control
[26] = Rate 62 g/ha, headed Pre-emergence (flood test species), scale 0 to 10 (0 no effect, 10 complete control)
[27] = Rate 125 g/ha, Pre-emergence, flood test species, scale 0 to 10 where 0 is no effect and 10 is complete control
[28] = Rate 250 g/ha, Pre-emergence, flood-test species, scale 0 to 10, 0 is no effect, 10 is complete control
[29] = Rate 500 g/ha, Pre-emergence, flood test species, scale 0 to 10 (0 no effect, 10 complete control)
[30] = Rate 62 g/ha, Postemergence, scale of 0 to 10 where 0 is no effect and 10 is complete control
[31] = Rate 125 g/ha, Postemergence, scale 0 to 10

CC(C)N(C(=O)n1oc(=O)n(CC(=O)OC(C)(C)C)c1=O)c1ccc(F)cc1 [Compound 265]
Morningglory plant response rating [1, 21]: 0
Morningglory plant response rating [1, 22]: 0
Plant response rating, Morningglory [1, 23]: 0
Morningglory plant response rating [1, 24]: 0
Plant response rating (0 to 10; 0 is no effect, 10 is complete control), Morningglory ([1]; Rate 250 g/ha, Postemergence): 6
Morningglory plant response rating [1, 25]: 8
Barnyardgrass plant response rating [2, 26]: 0
Barnyardgrass plant response rating [2, 27]: 0
Barnyardgrass plant response rating [2, 28]: 0
Barnyardgrass plant response rating [2, 29]: 0
Soybean plant response rating [3, 21]: 0
Soybean plant response rating [3, 22]: 0
Plant response rating, Soybean [3, 23]: 0
Soybean plant response rating [3, 24]: 0
Soybean plant response rating [3, 25]: 4
Ducksalad plant response rating [4, 26]: 0
Ducksalad plant response rating [4, 27]: 0
Ducksalad plant response rating [4, 28]: 0
Ducksalad plant response rating [4, 29]: 0
Corn plant response rating [5, 21]: 0
Corn plant response rating [5, 22]: 0
Plant response rating, Corn [5, 23]: 0
Corn plant response rating [5, 30]: 0
Corn plant response rating [5, 31]: 0
Corn plant response rating [5, 24]: 0
Plant response rating (0 to 10; 0 is no effect, 10 is complete control), Corn ([5]; Rate 250 g/ha, Postemergence): 0
Corn plant response rating [5, 25]: 0
S. Flatsedge plant response rating [6, 26]: 0
S. Flatsedge plant response rating [6, 27]: 0
S. Flatsedge plant response rating [6, 28]: 0
S. Flatsedge plant response rating [6, 29]: 0
Sugarbeets plant response rating [7, 21]: 0
Sugarbeets plant response rating [7, 22]: 0
Plant response rating, Sugarbeets [7, 23]: 0
Sugarbeets plant response rating [7, 24]: 0
Sugarbeets plant response rating [7, 25]: 3
Velvetleaf plant response rating [8, 21]: 0
Velvetleaf plant response rating [8, 22]: 0
Plant response rating, Velvetleaf [8, 23]: 0
Velvetleaf plant response rating [8, 24]: 0
Velvetleaf plant response rating [8, 25]: 3
Crabgrass plant response rating [9, 21]: 1
Crabgrass plant response rating [9, 22]: 2
Plant response rating, Crabgrass [9, 23]: 6
Crabgrass plant response rating [9, 24]: 2
Plant response rating (0 to 10; 0 is no effect, 10 is complete control), Crabgrass ([9]; Rate 250 g/ha, Postemergence): 2
Crabgrass plant response rating [9, 25]: 3
Nutsedge plant response rating [10, 21]: 0
Nutsedge plant response rating [10, 22]: 0
Plant response rating, Nutsedge [10, 23]: 0
Plant response rating (0 to 10; 0 is no effect, 10 is complete control), Nutsedge ([10]; Rate 250 g/ha, Postemergence): 0
Nutsedge plant response rating [10, 25]: 0
Blackgrass plant response rating [11, 21]: 0
Blackgrass plant response rating [11, 22]: 0
Blackgrass plant response rating [11, 30]: 4
Blackgrass plant response rating [11, 31]: 4
Plant response rating (0 to 10; 0 is no effect, 10 is complete control), Blackgrass ([11]; Rate 250 g/ha, Postemergence): 5
Blackgrass plant response rating [11, 25]: 7
Giant foxtail plant response rating [12, 21]: 6
Giant foxtail plant response rating [12, 22]: 8
Plant response rating, Giant foxtail [12, 23]: 10
Giant foxtail plant response rating [12, 24]: 8
Plant response rating (0 to 10; 0 is no effect, 10 is complete control), Giant foxtail ([12]; Rate 250 g/ha, Postemergence): 2
Giant foxtail plant response rating [12, 25]: 2
Bedstraw plant response rating [13, 21]: 0
Bedstraw plant response rating [13, 22]: 0
Plant response rating, Bedstraw [13, 23]: 0
Bedstraw plant response rating [13, 30]: 0
Bedstraw plant response rating [13, 31]: 2
Bedstraw plant response rating [13, 24]: 0
Plant response rating (0 to 10; 0 is no effect, 10 is complete control), Bedstraw ([13]; Rate 250 g/ha, Postemergence): 3
Bedstraw plant response rating [13, 25]: 8
Wheat plant response rating [14, 21]: 0
Wheat plant response rating [14, 22]: 0
Plant response rating, Wheat [14, 23]: 1
Wheat plant response rating [14, 24]: 0
Wheat plant response rating [14, 25]: 0
Redroot pigweed plant response rating [15, 21]: 0
Redroot pigweed plant response rating [15, 22]: 0
Plant response rating, Redroot pigweed [15, 23]: 0
Redroot pigweed plant response rating [15, 24]: 0
Plant response rating (0 to 10; 0 is no effect, 10 is complete control), Redroot pigweed ([15]; Rate 250 g/ha, Postemergence): 3
Redroot pigweed plant response rating [15, 25]: 4
Rape plant response rating [16, 21]: 0
Rape plant response rating [16, 22]: 0
Plant response rating, Rape [16, 23]: 0
Rape plant response rating [16, 24]: 0
Plant response rating (0 to 10; 0 is no effect, 10 is complete control), Rape ([16]; Rate 250 g/ha, Postemergence): 1
Rape plant response rating [16, 25]: 3
Cocklebur plant response rating [17, 21]: 0
Cocklebur plant response rating [17, 22]: 0
Cocklebur plant response rating [17, 30]: 0
Cocklebur plant response rating [17, 31]: 0
Cocklebur plant response rating [17, 24]: 0
Plant response rating (0 to 10; 0 is no effect, 10 is complete control), Cocklebur ([17]; Rate 250 g/ha, Postemergence): 0
Cocklebur plant response rating [17, 25]: 0
B. signalgrass plant response rating [18, 21]: 0
B. signalgrass plant response rating [18, 22]: 0
Plant response rating, B. signalgrass [18, 23]: 4
B. signalgrass plant response rating [18, 30]: 0
B. signalgrass plant response rating ([18]; Rate 125 g/ha, Postemergence, scale 0 (no effect) to 10 (complete control)): 0
B. signalgrass plant response rating [18, 24]: 0
Plant response rating (0 to 10; 0 is no effect, 10 is complete control), B. signalgrass ([18]; Rate 250 g/ha, Postemergence): 0
B. signalgrass plant response rating [18, 25]: 0
Rice plant response rating [19, 26]: 0
Rice plant response rating [19, 27]: 0
Rice plant response rating [19, 28]: 0
Rice plant response rating [19, 29]: 0
Wild oats plant response rating [20, 21]: 0
Wild oats plant response rating [20, 22]: 2
Plant response rating, Wild oats [20, 23]: 5
Wild oats plant response rating [20, 24]: 0
Wild oats plant response rating [20, 25]: 0
